# According to PMC12810351, “Structure-effect relationship of phenolic compounds on α-amylase inhibition studied by isothermal titration calorimetry” (Current Research in Food Science, 2025):
# Read-outs that look alike come from different tables or passages of the source.
# Assays:
# [1] = target: T1, porcine pancreatic α-amylase (Sus scrofa, UniProt P00690); test: starch hydrolysis by α-amylase monitored by isothermal titration calorimetry (ITC); type: biochemical; conditions: for remaining activity at 25 µM: 25 μM EGCG, relative to control
# T1 sequence (P00690 16-511): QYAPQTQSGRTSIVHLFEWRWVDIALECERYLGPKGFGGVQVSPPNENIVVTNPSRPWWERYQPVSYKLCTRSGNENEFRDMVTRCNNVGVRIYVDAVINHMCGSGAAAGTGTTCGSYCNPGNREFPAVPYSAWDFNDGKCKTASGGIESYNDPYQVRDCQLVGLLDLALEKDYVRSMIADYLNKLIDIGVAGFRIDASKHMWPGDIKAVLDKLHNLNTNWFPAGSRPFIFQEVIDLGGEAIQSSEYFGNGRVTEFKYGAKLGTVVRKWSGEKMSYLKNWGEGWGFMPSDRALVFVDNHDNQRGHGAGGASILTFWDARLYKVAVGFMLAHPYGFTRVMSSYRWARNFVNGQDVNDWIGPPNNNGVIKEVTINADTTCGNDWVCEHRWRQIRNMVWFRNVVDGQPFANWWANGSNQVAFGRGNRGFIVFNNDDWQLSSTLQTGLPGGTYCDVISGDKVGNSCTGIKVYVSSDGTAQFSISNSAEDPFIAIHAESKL
# Experimental: The amylase stock solution was diluted each day and stored during the day at 4 °C.
# The experiments were conducted using an Affinity ITC LV instrument with a cell volume of 182 μL (TA Instruments, Eschborn, Germany). […] These controls were conducted to determine the optimal injection volume to achieve maximal velocity (vmax) (S11). […] Enzyme kinetic constants were determined at 310 K.
# The heat released during starch conversion was continuously monitored, with calculations performed using Microsoft Excel® software. The enzymatic rate (v) is directly proportional to the measured thermal power (eq (1)).(1) v=dP/dt=1/Vcell·ΔRHapp·dQ/dt
# The reaction enthalpy ( ΔRHapp ) is determined by integrating the heat peak over its entire duration, divided by the number of substrate molecules converted:(2) ΔRHapp=∫t=0∞dQ/dtdt/nS
# (dQ/dt)max [%], ΔRHapp [%] und vmax [%] are calculated in relation to daily control.
# The substrate concentration at time t ([S]t) is calculated according to eq (3).(3) [S]t=∫t∞dQ/dtdt/∫0∞dQ/dtdt·[S]t=0
# Therefore, the thermogram contains all the required data for calculating inhibition constants. The maximal conversion rate vmax and the Michaelis-Menten constant Km are determined from control experiments conducted in the absence of an inhibitor. In the presence of an inhibitor [I] the apparent values of vmaxapp and Kmapp are obtained. Competitive inhibition (Kic, eq (5)) is due to the formation of an enzyme-inhibitor complex (EI), whereas uncompetitive inhibition (Kiu, eq (5)) occurs when an inhibitor binds to a […]:(5) Kic=vmaxapp/Kmapp·[I]/(vmax/Km)−(vmaxapp/Kmapp)Kiu=vmaxapp·[I]/vmax−vmaxapp
# The IC50 value, a key pharmacological metric, is used to compare the potency of inhibitors. […] The conversion rate (v0) was calculated from the thermogram according to eq (1), and subsequently plotted against the […]
# α-amylase [2] = target: α-amylase; set-up: method as in Kaeswurm et al. (2019); conditions: substrate GalG2CNP, CNP UV/Vis, ref Kaeswurm et al. (2019), cited from earlier work
# α-amylase [3] = target: α-amylase; set-up: method as in Nyambe-Silavwe et al. (2015); conditions: substrate amylose, amylopectin, DNS UV/Vis; ref Nyambe-Silavwe et al. (2015); cited from earlier work
compound,measurement,setting,value
"O=C(O[C@@H]1Cc2c(O)cc(O)cc2O[C@@H]1c1cc(O)c(O)c(O)c1)c1cc(O)c(O)c(O)c1 [EGCG, epigallocatechin gallate]",remaining activity at 25 µM,[1]; read-out: (dQ/dt)max [%],38 ± 4%
same,remaining activity at 25 µM,[1]; read-out: vmax [%],49 ± 2%
same,reversibility of inhibition (from ΔRHapp),[1]; 100 μM polyphenol (EGCG 25 μM),irreversible aggregation
same,α (Kic/Kiu),[1]; calculated based on the mass concentration,0.73 ± 0.01
same,Ki,"[1]; calculated based on the mass concentration, read-out: Kic [g/L] (converted)",21.8 µM
same,Ki,"[1]; calculated based on the mass concentration, read-out: Kiu [g/L] (converted)",21.8 µM
same,Ki,"[1]; competitive inhibition constant, substrate starch, ITC, 100 μM polyphenol (EGCG 25 μM), read-out: Kic",19 ± 2 µM
same,inhibition mechanism suggested by Kic/Kiu ratios,[1]; polyphenol standards,preferentially bind to the enzyme
same,inhibition type,"[1]; substrate starch, ITC",mixed
same,IC50,"[1]; substrate starch, ITC, calculated by eq (6), substrate concentration of 1 M (IC50 equivalent to Kiu), read-out: IC50*",25 ± 2 µM
same,Ki,"[1]; uncompetitive inhibition constant, substrate starch, ITC, 100 μM polyphenol (EGCG 25 μM), read-out: Kiu",26 ± 2 µM
same,IC50,α-amylase [2],58 µM
same,Ki,α-amylase [2]; read-out: Kic,124 µM
same,Ki,α-amylase [2]; read-out: Kiu,58 µM
same,IC50,α-amylase [3],5.3 to 60 µM
